The values that follow come from patent US20260176285A1, “SALT OF DIOXANE QUINOLINE COMPOUND, CRYSTAL FORM THEREOF, PREPARATION METHODS THEREFOR AND USES THEREOF” (Beijing Scitech-MQ Pharmaceuticals Limited, priority 2022, published 2026).

Holding throughout (type): physicochemical
Series [1] can be described thus: Solid-state stability evaluation (XRPD, HPLC). Particulars: for Purity / Purity/initial purity: listed as p-Toluenesulfonate salt crystal form B-III. On the procedure:
The following 6 test samples were placed under 25° C./60% RH and 40° C./75% RH conditions for 1 week, and then the physical and chemical stability of the samples was tested by XRPD and HPLC.
At the same time, after the p-toluenesulfonate salt crystal form A-II and crystal form B-III solids were placed at 80° C. for 24 hours, the physical and chemical stability of the samples were tested by XRPD and HPLC.

Series [2] is described as follows: Hygroscopicity by dynamic moisture sorption (DVS). Particulars: DVS, listed as p-Toluenesulfonate salt crystal form B-III. The protocol: Dynamic moisture sorption (DVS): The curves were collected on a DVS Intrinsic of SMS (Surface Measurement Systems). At 25° C., the humidity range was 0% RH-95% RH, the step was 10% (the last step was 5%), and the dm/dt was 0.002%/min.
The hygroscopicity of the free compound of formula (I), mucate salt crystal form A-I, p-toluenesulfonate salt crystal forms A-II and B-III, di-p-toluenesulfonate salt crystal form A-IV and phosphate salt crystal form A-V was evaluated by dynamic moisture sorption instrument (DVS). Starting from 0% relative humidity (0% RH), the test collected the mass change percentage of the samples under constant temperature of 25° C. with humidity changes (0% RH-95% RH-0% RH).

Series [3] can be described thus: Equilibrium solubility in water. Conditions: H2O, room temperature, 24 hours; listed as p-Toluenesulfonate salt crystal form B-III. The protocol:
The sample was centrifuged and filtered, and the filtrate was tested by HPLC.

Consider `O=C(Nc1ccc(F)cc1)C1(C(=O)Nc2ccc(Oc3ccnc4cc(OCCCN5CCOCC5)c5c(c34)OCCO5)c(F)c2)CC1` [Example 3, N-(3-fluoro-4-((5-(3-morpholinopropoxy)-2,3-dihydro-[1,4]dioxano[2,3-f]quinolin-10-yl)oxy)phenyl)-N-(4-fluorophenyl)cyclopropane-1,1-dicarboxamide], for which the Purity in series [1] (25° C./60% RH, 1 week) was 99.68 area %; in series [1] (40° C./75% RH, 1 week) it was 99.63 area %; in series [1] (80° C., 24 hours), 99.56 area %; in series [1] (Starting), 99.79 area %. The Purity/initial purity in series [1] (40° C./75% RH, 1 week) turned out to be 99.8%; in series [1] (80° C., 24 hours), 99.8%. For the same compound, in series [1] (80° C., 24 hours), the “Change of Crystal form” value is given as “no”. Further, the “Moisture adsorption (25° C./80% RH)” value in series [2] (25° C./80% RH) stood at 3.13%. The Hygroscopicity entry in series [2] (25° C.) is listed as “Hygroscopic”. Besides, in series [3], the “Solubility (equilibrium)” value worked out at 1.3 mg/mL.
